# From patent US12053549B2, “Laxative tablet” (SETOLAS Holdings, Inc., priority 2018, dated 2024)
# Assay: Volume-based 50% particle diameter (D50) of raw materials by laser diffractometry
# Format: physicochemical
# Settings: raw material
# Procedure: 0.7 g of magnesium oxide was placed in a beaker with 70 mL of 0.2% sodium hexametaphosphate solution, and the mixture was subjected to dispersion treatment (3 minutes) using an ultrasonic homogenizer (Nippon Seiki, US-300). The volume-based 50% particle size (D50) of the magnesium oxide was then measured using a laser diffraction scattering particle size analyzer (Nikkiso, Microtrac).
smiles,measurement,value
[O]=[Mg] [Magnesium oxide],volume-based 50% particle size (D50),6.5 μm
